Results as given in the NIST ThermoML archive (doi:10.1016/j.tca.2017.02.001).
± gives the expanded uncertainty stated by the source.

Conditions: 298.15 K, 101.33 kPa, Liquid

viscosity (Cone and plate viscometry): 16.9 ± 1.7 mPa·s
electrical conductivity (Direct current cell with electrodes): 8.5e-05 ± 2e-06 S/m
thermal conductivity (transient hot wire): 0.2445 ± 0.0098 W/m/K
Compound: OCCO [1,2-ethanediol]
